Earlier results, collected in US12358983B2, “Combination of anti CD19 antibody with a BCL-2 inhibitor and uses thereof” (Incyte Corporation, priority 2016, dated 2025).

Key:
[1] = tested on: lymphoma and other blood cancers; settings: in vivo; cited from earlier work
[2] = mouse, in vivo; cited from earlier work
[3] = tested on: primary cells from patients with B-cell malignancies; settings: in vitro studies; cited from earlier work

## CN(C)CC[C@H](CSc1ccccc1)Nc1ccc(S(=O)(=O)NC(=O)c2ccc(N3CCN(Cc4ccccc4-c4ccc(Cl)cc4)CC3)cc2)cc1[N+](=O)[O-] [ABT-737]
[1]
  Efficacy in patient xenografts (in words): showed efficacy
[2]
  Effect in animal models (in words): improves survival, causes tumor regression and cures a high percentage of mice
[3]
  Sensitivity of primary cells (in words): sensitive
